Assay results from patent US20080064681A1, “Therapeutic agent for treating glaucoma” (priority 2006, published 2008).
Where a name gives a salt, the structure may show the parent alone.

Tests used:
[1] = system: intraocular pressure in rabbits; assay: Intraocular pressure measurement after instillation of eye drops in rabbits; type: in vivo, rabbit (NZW, male); details: for time after instillation of maximum intraocular-pressure-reducing effect: 1% eye drops in phosphate buffer pH 7.0, 0.05 ml into right eye; for time after instillation of maximum intraocular-pressure-reducing effect / period of intraocular-pressure-reducing effect longer than that for the compound M / inhibition in vivo at 1 % / intraocular-pressure-reducing effect relative to that of the compound M: rabbit; for period of intraocular-pressure-reducing effect longer than that for the compound M / inhibition in vivo at 1 %: 1% eye drops; for inhibition in vivo at 1 %: Oryctolagus cuniculus, topical, 2 h, 120 minutes after instillation, read-out: maximum intraocular-pressure-reducing effect, intraocular pressure lower than that of the control eye; for intraocular-pressure-reducing effect relative to that of the compound M: after 120 minutes from the instillation
Procedure: Eye drops were prepared by dissolving each compound (1.0 g) in a phosphate buffer solution which was prepared by dissolving 0.8 g of sodium dihydrogen phosphate and 0.5 g of sodium chloride in purified water such that the final weight was 100 g. The pH was adjusted to 7.0 with sodium hydroxide.
As a control, a phosphate buffer solution (pH 7.0) in which 1.0 g of the compound M was not dissolved was used.
Each rabbit (NZW, male, 2.5 to 3.0 kg) was secured in a holder. One of the preparations (0.05 ml) was instilled into the right eye, and the phosphate buffer as control (0.05 ml) was instilled into the left eye. The intraocular pressures were measured serially using a TonoLab handheld mobile tonometer manufactured by Tiolat. The ratios to the control values were calculated and plotted with time (refer to figures).
Eye drops were prepared by dissolving the compound (S)-hexahydro-1-(4-fluoroisoquinoline-5-sulfonyl)-4-glycyl-2-methyl-1H-1,4-diazepine dihydrochloride (1.0 g) in 1.0 g of dimethyl sulfoxide and adding the resulting solution to a boric acid solution prepared by dissolving 2.0 g of boric acid in purified water such that the final weight was 100 g. The pH was adjusted to 7.0 with sodium hydroxide.
The eye drops were administered to a rabbit as in Example 1, and the intraocular pressures were measured.

[2] = target: T1, recombinant ROCK II (1-602) (Homo sapiens, UniProt O75116); assay: Rho-kinase assay (phosphate incorporation, [γ-32P]ATP, RSK peptide); type: biochemical; details: 10 nM ROCK II, 10 μM ATP, 30° C., 10 minutes
T1 construct: made in house; host or cells: Sf9 insect cells
T1 sequence (O75116 1-602): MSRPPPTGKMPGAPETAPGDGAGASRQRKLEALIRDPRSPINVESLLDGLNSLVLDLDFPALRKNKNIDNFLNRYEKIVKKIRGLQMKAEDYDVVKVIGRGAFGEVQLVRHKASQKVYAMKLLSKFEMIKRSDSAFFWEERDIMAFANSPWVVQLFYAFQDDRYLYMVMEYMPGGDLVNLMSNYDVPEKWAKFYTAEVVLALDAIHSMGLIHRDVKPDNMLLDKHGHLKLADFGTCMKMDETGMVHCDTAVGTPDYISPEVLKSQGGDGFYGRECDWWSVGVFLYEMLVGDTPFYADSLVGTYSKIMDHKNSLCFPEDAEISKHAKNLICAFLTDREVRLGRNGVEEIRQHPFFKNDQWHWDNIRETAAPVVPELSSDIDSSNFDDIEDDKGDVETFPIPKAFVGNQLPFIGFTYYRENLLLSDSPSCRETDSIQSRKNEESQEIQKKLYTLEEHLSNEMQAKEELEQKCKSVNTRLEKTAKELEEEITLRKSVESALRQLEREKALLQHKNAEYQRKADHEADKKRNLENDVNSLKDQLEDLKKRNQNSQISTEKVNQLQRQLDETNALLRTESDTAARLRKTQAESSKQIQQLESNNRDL
Procedure: Rho-kinase assays were performed using the compounds in various concentrations and the 50% inhibitory concentrations (hereinafter referred to as the “IC50 value”) of the compounds for Rho-kinase were calculated. In the Rho-kinase assay, phosphorylation reaction was performed using an activated form of recombinant ROCK II (1-602) obtained by expressing human ROCK II cDNA in Sf9 cells […], and the phosphate incorporation activity was defined as the Rho-kinase activity. Namely, the compounds were each added to a reaction solution containing 50 mM Tris-HCL (ph 7.4), […], 2 mM EDTA, 2 mM EGTA, 0.1% tween 20, 50 μM RSK peptide, 10 μM [γ-^32P]ATP, and 10 nM ROCK II, and the reaction was allowed to proceed at 30° C. for 10 minutes. The reaction mixture was spotted on phosphocellulose paper, and the reaction was stopped by dipping the phosphocellulose paper into a phosphoric acid solution. The phosphocellulose paper was washed with the phosphoric acid solution, and then radioactivity was measured with a liquid scintillation counter.
An Rho-kinase assay was performed, and the 50% inhibitory concentration (hereinafter referred to as the “IC50 value”) was calculated. The IC50 value of the reference compound (S)-hexahydro-1-(4-fluoroisoquinoline-5-sulfonyl)-4-glycyl-2-methyl-1H-1,4-diazepine dihydrochloride for Rho-kinase is shown in Table 2.

[3] = system: intraocular pressure in rabbits; details: literature reports; cited from earlier work

Structure (SMILES) | time after instillation of maximum intraocular-pressure-reducing effect [1] | period of intraocular-pressure-reducing effect longer than that for the compound M [1] | inhibition in vivo at 1 % [1] | intraocular-pressure-reducing effect relative to that of the compound M [1] | IC50 [2] | intraocular-pressure-reducing effect ([1]; 1% eye drops in dimethyl sulfoxide / boric acid solution pH 7.0, rabbit) | effect on intraocular pressure in rabbits (reported) [3]
C[C@H]1CNCCCN1S(=O)(=O)c1cccc2cncc(Cl)c12 [Compound C7, (S)-hexahydro-1-(4-chloroisoquinoline-5-sulfonyl)-2-methyl-1H-1,4-diazepine dihydrochloride] | 120 min | about 3 hours | 54% | 1.9 times | 25.8 nM |  | 
C[C@H]1CN(C(=O)CN)CCCN1S(=O)(=O)c1cccc2cncc(F)c12.Cl.Cl [Reference Compound, (S)-hexahydro-1-(4-fluoroisoquinoline-5-sulfonyl)-4-glycyl-2-methyl-1H-1,4-diazepine dihydrochloride, reference compound] |  |  |  |  | 54 nM | a statistically significant intraocular-pressure-reducing effect was not observed | 
O=S(=O)(c1cccc2cnccc12)N1CCCNCC1 [HA-1077] |  |  |  |  |  |  | reduce intraocular pressure in rabbits
C[C@H]1CNCCCN1S(=O)(=O)c1cccc2cncc(F)c12 [Compound F7, (S)-hexahydro-1-(4-fluoroisoquinoline-5-sulfonyl)-2-methyl-1H-1,4-diazepine dihydrochloride] | 120 min | about 3 hours | 45% | 1.9 times | 85 nM |  | 
C[C@H]1CNCCN1S(=O)(=O)c1cccc2cncc(Br)c12 [Compound B6, 2-(S)-1-(4-bromoisoquinoline-5-sulfonyl)-2-methylpiperazine dihydrochloride] | 120 min | about 2 hours | 26% | substantially the same as that of the compound M | 634 nM |  | 
C[C@H]1CNCCCCN1S(=O)(=O)c1cccc2cncc(Cl)c12 [Compound C8, (S)-octahydro-1-(4-chloroisoquinoline-5-sulfonyl)-2-methyl-1,4-diazocine dihydrochloride] | 120 min | substantially the same as that for the compound M | 35% | 1.3 times | 21.1 nM |  | 
C[C@H]1CNCCCCN1S(=O)(=O)c1cccc2cncc(Br)c12 [Compound B8, (S)-octahydro-1-(4-bromoisoquinoline-5-sulfonyl)-2-methyl-1,4-diazocine dihydrochloride] | 120 min | about 1 hours | 47% | 1.7 times | 48.5 nM |  | 
C#Cc1cncc2cccc(S(=O)(=O)N3CCCNC[C@@H]3C)c12.Cl.Cl [M, (S)-hexahydro-1-(4-ethynylisoquinoline-5-sulfonyl)-2-methyl-1 H-1,4-diazepine dihydrochloride, reference compound] | 120 min |  | 28% |  | 19.5 nM |  | 
C[C@H]1CNCCCN1S(=O)(=O)c1cccc2cncc(Br)c12 [Compound B7, (S)-hexahydro-1-(4-bromoisoquinoline-5-sulfonyl)-2-methyl-1H-1,4-diazepine dihydrochloride] | 120 min | about 5 hours | 56% | 2.0 times | 28.4 nM |  | 
C[C@H]1CNCCCCN1S(=O)(=O)c1cccc2cncc(F)c12 [Compound F8, (S)-octahydro-1-(4-fluoroisoquinoline-5-sulfonyl)-2-methyl-1,4-diazocine dihydrochloride] | 120 min | about 1 hours | 45% | 1.6 times | 39.1 nM |  | 
C[C@@H](N)[C@H]1CC[C@H](C(=O)Nc2ccncc2)CC1 [Compound Y-27632] |  |  |  |  |  |  | reduce intraocular pressure in rabbits
